Results on 1 substance are retold here after article PMC11755785 (Langmuir, 2025).

For series [1] the following is noted: cited from earlier work.
Series [2] can be described thus: Phase-solubility diagram with β-CD. As for the experimental part: The solutions were mechanically shaken at 298 K in a thermostatic chamber, and the supernatant was sampled and filtered after passage for appropriate periods. The concentration of the drug in the supernatant was determined using HPLC.
The phase-solubility diagram consists of the equilibrium concentration of the guest drug as the ordinate and the total concentration of the host CD as the abscissa.[45] If a straight line and parabolic curve can be approximated on the phase-solubility diagram, then, the curves are classified as AL- and AP-types in the Higuchi and Connors catalogs, respectively.[45],[46]
Multiple regression analysis of the measured data set to the total concentration of the host ([CD]) and its squares ([CD]^2) using eq 3 can be used to obtain the stability constants for a combination of the equimolar complex K1:1 and double-host associating complex K1:2.[45],[46] [drawing 3] 3 This is the sum of the dissociated (free) and associated (complexed) drug concentrations. Although the Benesi–Hildebrand equation with the square of the host concentration has been used for parabolic correlations, its validity remains unclear.
This curve is classified as the AN-type on the Higuchi and Connors catalog.[45]−[48] The curve is described by eq 4′ according to the Langmuir adsorption isotherm model.[47]−[51] To process with the linear regression analysis of ordinate ([CD]/γ) referred to abscissa ([CD]), the Hanes–Woolf expression in eq 4′ may be used [drawing 4] 4 [drawing 5] 4′ where n indicates the asymptotic concentration of the drug associated with CD (saturation, maximal γ) and K is equivalent to the drug/CD complex stability constant. […] The stoichiometry of a complex of drugs with CD is difficult to determine; the prevailing opinion is that more than one guest molecule incorporates a host molecule and that hydration or ionization of the guest regulates the solubility of the complex.[46]
Szejtili[46] stated that, in rare cases, the ascending region at lower host concentrations is followed by a plateau region, similar to that of the AN-type saturation curve. Simultaneously, it terminates at any host concentration threshold. It is named the BS-type in the Higuchi and Connors catalog,[45]−[48] and for concentrations higher than the threshold, the guest concentration decreases along a hyperbola, probably according to the solubility product KSP.[49] To analyze this type of pattern, a hypothesis that is yet to be discussed is required.[52] […] At the threshold concentration of CD, the scale of the aggregated dispersoids transcends an upper limit, and the aggregation induces subsequent sedimentation.[52] Thus, the solubility product may be considered a property of poorly soluble aggregated dispersoids containing a tolerable amount of the drug and an excess amount of CD.

As to “p-tert-butyl-p-methoxydibenzoylmethane [AVB]”, the “log Kow” value in series [1] (Chart 1) is on record as 4.51. Besides, in series [1], the “reported log P” value was 4.51 and the “reported pKa” value is 9.7. The “partition coefficient log KOW” value in series [1] (introduction, reference not given) is 4.51. Also, in series [2] (25 mM Pi/NaOH buffer pH 6.8, 298 K, Figure 2, in M-1 (unit assumed)), the “stability constant K1:1 with β-CD” value is reported as 1023. In series [2] (equimolar complex, pH 6.8), the “stability constant K1:1 with β-CD” value was 1023 L/mol.
